The source of these data is paper PMC7178819, “6,7-Dimethoxy-2-phenethyl-1,2,3,4-tetrahydroisoquinoline amides and corresponding ester isosteres as multidrug resistance reversers” (Journal of Enzyme Inhibition and Medicinal Chemistry, 2020).

As a reminder, the EC50 is the midpoint of the concentration-response curve. The efflux ratio is the permeability from basolateral to apical divided by that in the opposite direction, in the common usage. As usually defined, the half-life is how long it takes for the measured level to halve.

The target in data set [1] is T1, P-gp (Homo sapiens, UniProt P08183).
T1 construct: expressed in transfected cells; host or cells: MDCK-MDR1 (Madin-Darby Canine Kidney cells, gift of Prof. P. Borst, NKI-AVL)
T1 sequence (P08183 whole entry): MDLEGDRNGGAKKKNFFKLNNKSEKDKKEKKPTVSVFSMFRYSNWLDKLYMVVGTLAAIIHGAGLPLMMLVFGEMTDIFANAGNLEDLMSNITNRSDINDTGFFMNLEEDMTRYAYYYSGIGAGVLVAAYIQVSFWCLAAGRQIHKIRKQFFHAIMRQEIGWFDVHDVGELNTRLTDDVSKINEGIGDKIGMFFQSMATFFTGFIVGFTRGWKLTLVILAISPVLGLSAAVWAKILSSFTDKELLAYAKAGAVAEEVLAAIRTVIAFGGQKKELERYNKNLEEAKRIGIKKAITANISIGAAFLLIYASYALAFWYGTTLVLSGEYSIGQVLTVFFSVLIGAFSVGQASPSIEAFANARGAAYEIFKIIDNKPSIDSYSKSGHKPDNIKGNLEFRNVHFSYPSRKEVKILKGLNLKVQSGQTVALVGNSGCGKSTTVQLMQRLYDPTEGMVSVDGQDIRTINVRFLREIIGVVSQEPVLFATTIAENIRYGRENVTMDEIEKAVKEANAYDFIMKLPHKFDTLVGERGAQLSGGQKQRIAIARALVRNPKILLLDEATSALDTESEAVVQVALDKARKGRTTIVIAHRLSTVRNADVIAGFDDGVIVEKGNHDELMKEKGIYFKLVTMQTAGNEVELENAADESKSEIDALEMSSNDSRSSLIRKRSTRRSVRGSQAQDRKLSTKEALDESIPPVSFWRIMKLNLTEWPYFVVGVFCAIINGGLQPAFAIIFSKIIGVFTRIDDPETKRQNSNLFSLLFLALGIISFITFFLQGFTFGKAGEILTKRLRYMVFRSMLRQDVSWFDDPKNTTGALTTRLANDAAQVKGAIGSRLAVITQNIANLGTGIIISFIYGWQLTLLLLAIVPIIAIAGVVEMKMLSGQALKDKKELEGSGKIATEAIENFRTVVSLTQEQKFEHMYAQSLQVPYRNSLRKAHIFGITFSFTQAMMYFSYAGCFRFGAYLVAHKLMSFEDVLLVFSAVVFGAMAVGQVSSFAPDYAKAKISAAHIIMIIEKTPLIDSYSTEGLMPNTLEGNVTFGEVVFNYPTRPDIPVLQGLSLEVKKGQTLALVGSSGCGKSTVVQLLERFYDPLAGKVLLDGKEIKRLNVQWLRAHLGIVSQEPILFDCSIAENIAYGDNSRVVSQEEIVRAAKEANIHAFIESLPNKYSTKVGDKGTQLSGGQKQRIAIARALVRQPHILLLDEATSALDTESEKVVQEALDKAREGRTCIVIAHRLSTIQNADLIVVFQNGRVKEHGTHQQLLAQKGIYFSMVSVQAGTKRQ
Kind of data set: Inhibition of Calcein-AM transport in MDCK-MDR1 cells. The conditions noted are these: Calcein-AM, MDCK-MDR1 cells; mean ± SEM of two experiments. In kind it is cell-based. As for the experimental part: These experiments were carried out as previously described by Teodori et al. with minor modifications. Each cell line (30 000 cells per well) was seeded into black CulturePlate 96/wells plate with 100 µL medium and allowed to become confluent overnight. 100 µL of test compounds were solubilised in culture medium and added to monolayers, with final concentrations ranging from 1 nM to 100 µM. 96/Wells plate was incubated for 30 min in a humidified atmosphere 5% CO2 at 37 °C. Calcein-AM was added in 100 µL of Phosphate Buffered Saline (PBS) to yield a final concentration of 2.5 µM and plate was incubated for 30 min in a humidified atmosphere 5% CO2 at 37 °C. Each well was washed 3 times with ice cold PBS. Saline buffer was added to each well and the plate was read with Victor3 (PerkinElmer) at excitation and emission wavelengths of 485 and 535 nm, respectively. In these experimental conditions, Calcein cell accumulation in the absence and in the presence of tested compounds was evaluated and fluorescence basal level was estimated with untreated cells. In treated wells the increase of fluorescence with respect to basal level was measured. EC50 values were determined by fitting the fluorescence increase percentage versus log[dose].
The interaction potency between the designed compounds and P-gp was evaluated by measuring the transport inhibition of the pro-fluorescent probe Calcein-AM, that is a P-gp substrate, in a cell line overexpressing P-gp (MDCK-MDR1)[47]. The P-gp interacting profile was further investigated with two other assays: the Apparent Permeability (Papp) determination (BA/AB) in Caco-2 cell monolayer[48]^,[49], and the ATP cell depletion in the MDCK-MDR1 cell line[50]. […] Papp determination measures the ratio between two fluxes: from the basolateral to apical compartments (BA, representative of passive diffusion) and from the apical to basolateral compartments (AB, representative of active transport). […] In the same manner, if (BA/AB) >2, the compound should probably be classified as a substrate.

The target of data set [2] is T1, P-gp. Kind of data set: ATP cell depletion (ATPlite assay) in MDCK-MDR1 cells. The settings on record: Yes/No. In kind it is cell-based. As for the experimental part: The MDCK-MDR1 cells were seeded into 96-well microplate in 100 µL of complete medium at a density 20,000 cells per well. The plate was incubated overnight (O/N) in a humidified atmosphere 5% CO2 at 37 °C. The medium was removed and 100 µL of complete medium either alone or containing different concentrations (ranging from 1 to 100 µM) of test compounds was added. The plate was incubated for 2 h in a humidified 5% CO2 atmosphere at 37 °C. 50 µL of mammalian cell lysis solution was added to all wells and the plate shacked for five minutes in an orbital shaker. 50 µL of substrate solution was added to all wells and the plate shacked for five minutes in an orbital shaker. The plate was dark adapted for ten minutes and the luminescence was measured.
(§1) The interaction potency between the designed compounds and P-gp was evaluated by measuring the transport inhibition of the pro-fluorescent probe Calcein-AM, that is a P-gp substrate, in a cell line overexpressing P-gp (MDCK-MDR1)[47]. The P-gp interacting profile was further investigated with two other assays: the Apparent Permeability (Papp) determination (BA/AB) in Caco-2 cell monolayer[48]^,[49], and the ATP cell depletion in the MDCK-MDR1 cell line[50]. Taking into account the results of the combined tests, an interacting compound can be classified as substrate or inhibitor. Papp determination measures the ratio between two fluxes: from the basolateral to apical compartments (BA, representative of passive diffusion) and from the apical to basolateral compartments (AB, representative of active transport). […] In the same manner, if (BA/AB) >2, the compound should probably be classified as a substrate. […] The selectivity of ligands 1–26 was evaluated by detecting their activity towards the other ABC transporters MRP1 and BCRP, by measuring the inhibition of the efflux of Calcein-AM (i.e., also a MRP1 substrate) in cells overexpressing MRP1 (MDCK-MRP1 cells), and the inhibition of the efflux of the fluorescent probe Hoechst 33342 (i.e. a BCRP substrate) in cells overexpressing BCRP (MDCK-BCRP cells), respectively.
In general terms: Cellular ATP, detected with luciferase, serves as a proxy for viable cell number.

A short description of data set [3]: Apparent permeability (Papp) determination (BA/AB) in Caco-2 cell monolayer. In kind it is in vitro ADME. The conditions noted are these: human, Caco-2 monolayer. The procedure:
Caco-2 cells were seeded onto a Millicell® assay system (Millipore), where a cell monolayer is set in between a filter cell and a receiver plate, at a density of 10 000 cells/well[46]. The culture medium was replaced every 48 h and the cells kept for 21 days in culture. The Trans Epithelial Electrical Resistance (TEER) of the monolayers was measured daily, before and after the experiment, using an epithelial volt-ohmmeter (Millicell®-ERS). Generally, TEER values greater than 1000 Ω for a 21 days culture, are considered optimal.
After 21 days of Caco-2 cell growth, the medium was removed from filter wells and from the receiver plate, which were filled with fresh HBSS buffer (Invitrogen). This procedure was repeated twice, and the plates were incubated at 37 °C for 30 min. After incubation time, the HBSS buffer was removed and drug solutions and reference compounds were added to the filter well at the concentration of 100 µM, while fresh HBSS was added to the receiver plate. The plates were incubated at 37 °C for 120 min. Afterwards, samples were removed from the apical (filter well) and basolateral (receiver plate) side of the monolayer to measure the permeability.
as §1

Data set [4] in a line: Stability test in human plasma (LC-MS/MS). In kind it is in vitro ADME. The settings on record: 1 µM, 37 °C; for half-life at 1 µM: human, human plasma. The procedure:
(§2) Each sample was prepared adding 10 µL of working solution 1 to 100 µL of tested matrix (PBS or human plasma) in micro centrifuge tubes. The obtained solutions correspond to 1 µM of analyte.
After the incubation, the samples were added with 300 µL of ISTD solution and centrifuged (room temperature for 5 min at 10,000 rpm). The supernatants were transferred in auto sampler vials and dried under a gentle stream of nitrogen.
(§3) The dried samples were dissolved in 1.0 ml of 10 mM of formic acid in mQ water: acetonitrile 80:20 solution. The obtained sample solutions were analysed by LC-MS/MS methods described in Supplementary material.
For this purpose, a series of experiments were carried out, adding a known amount of analyte in both phosphate buffer solution (PBS) and in human plasma. The samples were analysed by LC-MS/MS method operating in Multiple Reaction Monitoring (MRM) mode[55].
The analyte concentration (1 µM) used during the stability tests is generally smaller than the corresponding Michaelis–Menten constant (KM); therefore, the enzymatic degradation rate is described by a first-order kinetic. Then, by plotting the natural logarithm of the quantitative data versus the incubation time, a linear function can be used and its slope represents the degradation rate (k).

Data set [5] can be described thus: Stability test in phosphate buffer solution (PBS). The data set is classed as physicochemical. The conditions noted are these: 1 µM, 37 °C, up to 120 min. The procedure:
as §2
Each set of samples was incubated in triplicate at four different times, 0, 30, 60 and 120 min at 37 °C. Therefore, the degradation profile of each analyte was represented by a batch of 12 samples (4 incubation times × 3 replicates). After the incubation, the samples were added with 300 µL of ISTD solution and centrifuged (room temperature for 5 min at 10,000 rpm). The supernatants were transferred in auto sampler vials and dried under a gentle stream of nitrogen.
as §3
Due to the presence of ester or amide groups in the structure of compounds 1–26, a study aimed to evaluate their susceptibility to spontaneous or enzymatic hydrolysis, was planned. For this purpose, a series of experiments were carried out, adding a known amount of analyte in both phosphate buffer solution (PBS) and in human plasma. The samples were analysed by LC-MS/MS method operating in Multiple Reaction Monitoring (MRM) mode[55]. […]

Turning to `COc1cncc(C(=O)Nc2ccc(CCN3CCc4cc(OC)c(OC)cc4C3)cc2)n1` [Compound 12, N-(4–(2-(6,7-dimethoxy-3,4-dihydroisoquinolin-2(1H)-yl)ethyl)phenyl)-6-methoxypyrazine-2-carboxamide], the concentration for a half-maximal effect (EC50) at P-gp [1] was 870 ± 170 nM. Besides, the ATP cell depletion result at P-gp [2] is listed as “No”. In addition, the efflux ratio at 120 min, 100 µM in data set [3] is 6. Further, the “stability in human plasma” value in data set [4] (up to 120 min) is listed as “stable over 120 min”. In data set [4], this compound showed a half-life at 1 µM of at least 240 min. The “stability in PBS” value in data set [5] is recorded as “unmodified”.

With `COc1cncc(C(=O)Oc2ccc(CCN3CCc4cc(OC)c(OC)cc4C3)cc2)n1` [Compound 25, 4–(2-(6,7-Dimethoxy-3,4-dihydroisoquinolin-2(1H)-yl)ethyl)phenyl 6-methoxypyrazine-2-carboxylate], on P-gp [1], the half-maximal effective concentration (EC50) was 220 ± 40 nM. On P-gp [2], the ATP cell depletion result was “No”. For the same compound, the efflux ratio at 120 min, 100 µM in data set [3] stood at 4.7. In addition, in data set [4], the half-life at 1 µM was around 6 min. In addition, the “stability in PBS” value in data set [5] is “unmodified”.
